Earlier results in patent publication US12251467B2, “Vaginal hydrogel for delivery of therapeutics” (priority 2018, dated 2025).
Converted amounts (≈) assume the structure as drawn.

## Cc1ncc([N+](=O)[O-])n1CCOC(=O)c1ccccc1 [metronidazole benzoate]
  solubility in water: 100 µg/mL (≈ 363 µM)
